From article PMC12267067, “Targeting GRPR for sex hormone-dependent cancer after loss of E-cadherin” (Nature, 2025)
No end group written: not given here.

Assays:
[1] = tested on: mouse melanoma cells (1057, 1014, 1062); assay: Anoikis assay, mouse melanoma cells; assay type: cell-based; details: 48 h
Description: Six-well plates were coated with poly-HEMA to prevent cell attachment to the well surface. Cells were seeded in low-serum medium containing 10 nM GRP and/or 1 µM RC. Then, 48 hours after cell seeding, cells were collected and washed with ice-cold PBS twice and resuspended in annexin V binding buffer (556454, BD Biosciences) and incubated at room temperature in the dark with 7-amino-actinomycin D (7-AAD, 559925, BD Biosciences) and annexin-V for 15 min. Annexin V was coupled to FITC (556420, BD Biosciences) for the 1057 and MDA-MB-435S cell lines and to PE (556421, BD Biosciences) for the other cell lines. Cells were sorted using a FACS LSRFortessa (BD Biosciences) to determine the percentage of annexin V- and/or 7-AAD-positive cells using a 488 nm laser for annexin V-FITC and annexin V-PE and a 675 nm laser for7-AAD. All quantification was performed using Flow-Jo.

[2] = tested on: YAP1 activation signature; assay: YAP1 activation signature (GSEA) and Yap1 score by RNA-seq, murine melanoma cell lines; assay type: cell-based, mouse; details: 4 h, 10 nM GRP
Description: The transcriptome, copy-number alteration, mutations and corresponding clinical data of the TCGA–SKCM (n = 473), TCGA–BRCA (n = 1,215), TCGA–STAD (n = 450), TCGA–LUSC (n = 553) and TCGA–KIRC (n = 606) datasets were retrieved from the National Cancer Institute Genomic Data Commons repository using the TCGAbiolinks R package in August 2022 (ref. [51]). The mRNA levels were calculated from RNA-sequencing read counts using RNA-Seq V2 RSEM and normalized to TPM. Expression of CDH1, CCND1, BRAF and KRAS was modelled over time using LOWESS smoothing with 1,860 points. Expression levels from acral melanoma were retrieved from GEO under accession number GSE162682. Survival analyses were carried out by separating the cohort into two groups according to gene expression. The threshold was set to 1 TPM, commonly considered to be the limit for sufficient protein expression of the transcript. The negative group was set to an expression 0.1 TPM or less to have clear separation in terms of expression (factor 10) from the positive group. The YAP and melanoma phenotypic state scores were obtained by averaging the expression of detailed marker genes, or for the mice, from their murine orthologues as described in ref. [52]. The pigmentation state was defined by the expression of MITF, MLANA, TRPM1, DCT and TYR; the starved-like melanoma cell phenotype by the expression of CD36, DLX5, IP6K3, PAX3 and TRIM67; the invasive state by the expression of AXL, CYR61, TCF4, LOXL2, TNC and WNT5A; and the neural crest cell-like phenotypic state by the expression of AQP1, GFRA2, L1CAM, NGFR, SLC22A17 and TMEM176B[52]. The scoring of YAP1 activation was determined from the expression of CYR61, CTGF, TEAD4, LATS2 and CRIM1. Yap scoring was obtained by averaging the fold change of each Yap1 target. The anoikis-resistance score was calculated on the basis of the expression of S100A7A, MTPN, ATP10B, S100A8, RSAD2, RENBP, CDHR1 and CD36. The ER-activation score was calculated according to the expressions of GATA4, SDK2, EGR3, IL19, GSG1L, RSPO1, PGR, IL24 and PDZK1. Expression data from human and mouse normal tissue were downloaded from the Human Protein Atlas (https://www.proteinatlas.org/) and from the EBI expression atlas (https://www.ebi.ac.uk/gxa/home), respectively, both accessed on 7 October 2022. The anatogram was generated using the gganatogram R package.
RNA was extracted from cells and mouse tumours using the miRNeasy kit (Qiagen, 217004), according to the manufacturer’s protocol. RNA integrity (RIN) was measured using an Agilent Bioanalyser 2100 (Agilent Technologies) and an RNA nano 6000 kit (5067-1511, Agilent Technologies). Only RNA with an RNA integrity number (RIN) of more than 7 was used for analysis. This threshold led to the sequencing of 72 mouse melanoma cell lines, 36 human melanoma cell lines and 32 mouse tumours. RNA concentrations were measured using a NanoDrop (NanoDrop Technologies). […] The libraries were equimolarly pooled and subjected to qPCR quantification using the KAPA library quantification kit (Roche). Sequencing was carried out on a NovaSeq 6000 instrument (Illumina) based on a 2 × 100 cycle mode (paired-end reads, 100 bases) using an S1 flow cell to obtain approximately 35 million clusters (70 million raw paired-end reads) per sample. Reads were mapped to the mm10 mouse reference genome (gencode m13 version-GRCm38.p5) or hg38 human reference genome (gencode 42 version-GRCh38.p13) using STAR[60]. […]

[3] = tested on: YAP1 activation signature; assay: YAP1 activation signature (GSEA) and YAP1 score by RNA-seq, human melanoma cell lines; assay type: cell-based; details: 4 h, 10 nM GRP
Description: The transcriptome, copy-number alteration, mutations and corresponding clinical data of the TCGA–SKCM (n = 473), TCGA–BRCA (n = 1,215), TCGA–STAD (n = 450), TCGA–LUSC (n = 553) and TCGA–KIRC (n = 606) datasets were retrieved from the National Cancer Institute Genomic Data Commons repository using the TCGAbiolinks R package in August 2022 (ref. [51]). The mRNA levels were calculated from RNA-sequencing read counts using RNA-Seq V2 RSEM and normalized to TPM. Expression of CDH1, CCND1, BRAF and KRAS was modelled over time using LOWESS smoothing with 1,860 points. Expression levels from acral melanoma were retrieved from GEO under accession number GSE162682. Survival analyses were carried out by separating the cohort into two groups according to gene expression. The threshold was set to 1 TPM, commonly considered to be the limit for sufficient protein expression of the transcript. The negative group was set to an expression 0.1 TPM or less to have clear separation in terms of expression (factor 10) from the positive group. […] The scoring of YAP1 activation was determined from the expression of CYR61, CTGF, TEAD4, LATS2 and CRIM1. […] The anoikis-resistance score was calculated on the basis of the expression of S100A7A, MTPN, ATP10B, S100A8, RSAD2, RENBP, CDHR1 and CD36. The ER-activation score was calculated according to the expressions of GATA4, SDK2, EGR3, IL19, GSG1L, RSPO1, PGR, IL24 and PDZK1. […]
RNA was extracted from cells and mouse tumours using the miRNeasy kit (Qiagen, 217004), according to the manufacturer’s protocol. RNA integrity (RIN) was measured using an Agilent Bioanalyser 2100 (Agilent Technologies) and an RNA nano 6000 kit (5067-1511, Agilent Technologies). […] RNA concentrations were measured using a NanoDrop (NanoDrop Technologies). […] The libraries were equimolarly pooled and subjected to qPCR quantification using the KAPA library quantification kit (Roche). […] Reads were mapped to the mm10 mouse reference genome (gencode m13 version-GRCm38.p5) or hg38 human reference genome (gencode 42 version-GRCh38.p13) using STAR[60]. […]

[4] = tested on: serine/threonine kinases in 1057 cells; assay: Kinase assay (PamGene STK PamChip); assay type: cell-based, mouse; details: 10 nM GRP, 15 min
Description: Serine/threonine and tyrosine kinase activity were determined using STK PamChips (87102 PamGene International). All assays were done according to the manufacturer’s protocol. In brief, cells were seeded to 70% confluence and starved overnight the day after. Then, the medium was replaced by medium containing vehicle (0.1% DMSO) or 10 nM GRP and/or 1 µM RC and the cells incubated for 15 min. Cells were rinsed twice in PBS and then lysed in M-Per buffer (78503, ThermoFisher Scientific) containing Halt Phosphatase Inhibitor (78428, ThermoFisher Scientific) and Halt Protease Inhibitor (78437, ThermoFisher Scientific), both diluted 1:100. The lysates were immediately snap-frozen. Kinase activity was determined using Pamstation PS12 and 1 µg protein for the STK chips, according to the manufacturer’s protocol. The data were analysed using BioNavigator software (PamGene International), batch corrected using ComBat[71] and normalized using VSN[72]. Kinase activity was assessed using the 2018 version of the UKA tool using basic parameters (Scan rank from 4 to 12, 500 permutations, 90% homology, equivalent weight for each database, minimal prediction score of 300). The UKA tool infers the active kinase from the differentially phosphorylated peptides using databases and predicted interactions (PhosphoNet database).

GRP: GRPR's natural agonist, endogenous ligand of GRPR (4011670 bachem) (VPLPAGGGTVLTKMYPRGNHWAVGHLM; not fully specified; ends and bridges not checked; UniProt P07492 24-50, looked up)
anoikis resistance (apoptotic cells without matrix attachment), GRPR+ mouse cells ([1]; 1057, 10 nM GRP and/or 1 µM RC, poly-HEMA, low serum, annexin V/7-AAD): promoted | anoikis resistance, Grpr-negative mouse cells ([1]; male ∆Ecad (1062) and female Ecad (1014) cells, 10 nM GRP): did not promote anoikis resistance | GSEA YAP activation, GRP vs. Mock: NES ([2]; 1014-Ct, female Ecad, Grpr-negative, FDR 0.585): 0.936 | GSEA YAP activation, GRP vs. Mock: NES ([2]; 1014-Grpr, female Ecad, FDR <0.0001): 2.77 | GSEA YAP activation, GRP vs. Mock: NES ([2]; 1064-par, female ΔEcad, FDR <0.0001): 2.34 | GSEA YAP activation, GRP vs. Mock: NES ([2]; 1181-Ct, male Ecad, Grpr-negative, FDR 0.986): 0.527 | GSEA YAP activation, GRP vs. Mock: NES ([2]; 1181-Grpr, male Ecad, FDR 0.003): 1.66 | GSEA YAP activation, GRP vs. Mock: NES ([3]; 501mel-GRPR, FDR <0.0001): 2.07 | GSEA YAP activation, GRP vs. Mock: NES ([3]; Dauv-1, FDR <0.0001): 2.21 | GSEA YAP activation, GRP vs. Mock: NES ([3]; MDA-MB-435S, FDR =0.0408): 1.32 | kinases activated following GRPR activation [4]: primarily triggered protein kinase C (PKC) and, to a lesser extent, PKAα and PRKX
